The values that follow come from US20060241066A1, “Decoy composition for treating and preventing inflammatory disease” (priority 2002, published 2006).

Entries after “also recorded” stand apart in the source; their conditions may differ.

For data set [1], the system named is type II collagen arthritis model in apes. Description: Type II collagen arthritis model in apes, intraarticular administration. It is filed as in vivo, apes (macaque). Particulars: for effective ratio: NF-κB decoy 10 mg/joint at two-week intervals, type II collagen articulitis model in apes; for change of the joints on X-ray photographs (synovial inflammation, joint swelling, joint cartilage, osteoclasis), FIG. 1: simian collagen arthritis model, radiograph.

A further data set relates to osteoarthritis rat model. Briefly: Osteoarthritis model using rats, intraarticular administration, joint section slides (FIG. 2). Particulars: listed as NF-κB decoys.

As to “5′-CCTTGAAGGGATTTCCCTCC-3′ (SEQ ID NO: 1) (chemistry not given here) [NF-κB decoy]”, the effective ratio in data set [1] was 3/4. Also, the results for the “change of the joints on X-ray photographs (synovial inflammation, joint swelling, joint cartilage, osteoclasis), FIG. 1” value in data set [1] (listed as decoy of the present invention) and in data set [1] (listed as decoys of the present invention) were “significant improvements” and “significant improvement”, respectively. The “effect on joint (section slide photographs), FIG. 2” value is given as “significant improvement; also recorded: significant effects” with osteoarthritis rat model (administration of 10 mg of decoy) and “eliminated the joint inflammation; also recorded: destroyed the articulitis” in the data set with osteoarthritis rat model (administration of 30 mg of decoy). Also, the “effect compared with that of steroid, FIG. 2” value in the data set on osteoarthritis rat model (decoy 10 mg and 30 mg versus steroid) was “exceeded that of steroids; also recorded: beyond those attained by the steroid”.
Regarding “5′-CATGTCGTCACTGCGCTCAT-3′ (SEQ ID NO: 7); and 5′-ATGAGCGCAGTGACGACATG-3′ (SEQ ID NO: 8) (listed as DNA, chemistry not given here) [scrambled decoy, reference compound]”, the effective ratio in data set [1] is recorded as 1/4. For the same substance, the “change of the joints on X-ray photographs (synovial inflammation, joint swelling, joint cartilage, osteoclasis), FIG. 1” value in data set [1] is “no effects”; in data set [1] (listed as scrambled decoys), “No effects”.
